This note sets out measurements from US9290440B2, “Bicyclic compound” (TOA EIYO LTD., priority 2012, dated 2016).

The test has as its system abdominal aorta ring specimen. The test is described as follows: Evaluation of blood vessel relaxing function (phenylephrine-contracted abdominal aorta ring). As to conditions: relaxation of rat abdominal aorta contracted with 1 μmol/L phenylephrine; without vs with 10 μmol/L ODQ. On the procedure: The representative compounds of the present invention were evaluated by blood vessel relaxing function according to the following Test Example. In the assay, bleeding from the upper part of a heart of a rat (male, SD) was performed under anesthesia with pentobarbital (30 mg/kg) and then abdominal aorta was extracted. The connecting tissue adhered around blood vessel was removed from the abdominal aorta in an ice-cooled Krebs-Henseleit solution (KH solution) (118 mmol/L sodium chloride, 4.7 mmol/L potassium chloride, 1.2 mmol/L magnesium sulfate, 1.2 mmol/L potassium dihydrogen phosphate, 25 mmol/L sodium hydrogen carbonate, 2.5 mmol/L calcium chloride, and 10 mmol/L glucose, pH 7.4). After that, a ring specimen with length of 2 mm was prepared and fixed in 5 mL organ bath filled with a KH solution. The KH solution was kept at 37° C. and aerated with a mixture gas of 95% O2 and 5% CO2. The specimen was stabilized for 1 hour with static tension of 1 g. The KH solution was exchanged twice during that time. The tension on the specimen was recorded on a multi-channel recorder via pickup and amplifier. After the stabilization of the specimen, contraction was caused by using 1 μmol/L phenylephrine (Phe), and cumulative administration of each compound (0.001, 0.01, 0.03, 0.1, 0.3, 1, 3, 10, 30, 100, 1000, 10000 nmol/L) was performed. For the evaluation of a case in which 1H-1,2,4-oxadiazole-(4,3a)-quinoxalin-1-one (ODQ) is contained, 10 μmol/L ODQ was added 10 minutes before the Phe addition, and the same evaluation as above was performed.
EC50 value was calculated using four-parameter logistics model using Assay Explorer (Accelrys). The test compound solution was dissolved in DMSO such that the concentration of each test compound is 1000 times the final concentration.
Consider `O=C(O)CCCCN(CCc1ccccc1OCc1ccc(CCc2ccccc2)cc1)Cc1ccc(C(=O)O)cc1` [Cinaciguat, reference compound], for which the “EC50 Ratio (ODQ−/ODQ+)” value is given as 12.4.
The figure for `O=C(O)CCCCN(CCc1ccccc1OCc1ccc(SCc2ccccc2)cc1)C1CCCc2cc(C(=O)O)ccc21` (stereo not drawn) [Example 15, 5-{N-[2-[2-(4-Benzylsulfanylbenzyloxyl)phenyl]ethyl]-N-(4-carboxybutyl)amino}-5,6,7,8-tetrahydronaphthalene-2-carboxylic acid] is 9.0; for `O=C(O)CCCCN(CCc1ccccc1OCc1cccc2c1CCCC2)C1CCCc2cc(C(=O)O)ccc21` (stereo not drawn) [Example 29, 5-{N-(4-Carboxybutyl)-N-[2-[2-(5,6,7,8-tetrahydronaphthalene-1-ylmethoxy)phenyl]ethyl]amino}-5,6,7,8-tetrahydronaphthalene-2-carboxylic acid] it is 5.0.
